Data reported in ChEMBL document CHEMBL4699520, “A guanidinium-based inhibitor of a type I isopentenyl diphosphate isomerase” (Bioorg Med Chem Lett, 2020).
pIC50, pKi: −log10 of the molar value. Active and inactive are the calls of the source. The calls are words filed in the database; no cut-off is given here.

What was measured:
[1] = Competitive inhibition of recombinant N-terminal hexaHis-tagged Staphylococcus aureus MS4 DSQS expressed in Escherichia coli Rosetta(DE3) using varying levels of FPP as substrate by Line weaver Burk plot analysis
Claviceps purpurea = test: Inhibition of Claviceps purpurea type 1 IDI
[2] = Inhibition of full-length N-terminal hexaHis-tagged Escherichia coli type 1 IDI using IPP as substrate by enzyme coupled assay
[3] = molecular target: T1, Farnesyl pyrophosphate synthase (Homo sapiens, UniProt P14324); test: Inhibition of N-terminal hexaHis-tagged human FPPS (6 to 353 residues) expressed in Escherichia coli using GPP and IPP as substrate by enzyme coupled assay
T1 sequence (P14324 whole entry): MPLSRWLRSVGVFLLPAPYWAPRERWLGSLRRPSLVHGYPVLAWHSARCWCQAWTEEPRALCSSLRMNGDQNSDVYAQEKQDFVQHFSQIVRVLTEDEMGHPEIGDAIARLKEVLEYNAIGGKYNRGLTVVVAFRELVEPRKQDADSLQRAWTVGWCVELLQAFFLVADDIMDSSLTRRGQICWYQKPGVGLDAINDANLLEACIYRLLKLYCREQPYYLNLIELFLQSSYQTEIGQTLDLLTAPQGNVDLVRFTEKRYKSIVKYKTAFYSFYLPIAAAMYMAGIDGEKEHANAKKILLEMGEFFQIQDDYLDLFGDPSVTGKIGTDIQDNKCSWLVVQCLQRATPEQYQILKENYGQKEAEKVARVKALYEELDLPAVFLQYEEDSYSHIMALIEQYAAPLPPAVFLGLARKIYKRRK

[4] = Inhibition of 4-DMATS (unknown origin)
[5] = Competitive inhibition of full-length N-terminal hexaHis-tagged Escherichia coli type 1 IDI using varying levels of IPP as substrate by Line weaver Burk plot analysis

| SMILES | pKi [1] | Kdiss (Claviceps purpurea) | pIC50 [2] | pIC50 [3] | inhibition [4] | pKi [5] |
| --- | --- | --- | --- | --- | --- | --- |
| CC(C)=CCC/C(C)=C/CC/[N+](C)=C(\N)NCP(=O)(O)CP(=O)([O-])O | 5.72 | – | – | – | – | – |
| CN(C)CCOP(=O)(O)OP(=O)(O)O | – | < 1.2 10^-10M | – | – | – | – |
| CC(C)=CCC/C(C)=C/CC/[N+](C)=C/NCP(=O)(O)CP(=O)([O-])O | 5.38 | – | – | – | – | – |
| CC(C)CCCC(C)CCCN(C)C(=O)NCP(=O)(O)CP(=O)(O)O (stereo unspecified) | 6.21 | – | – | – | – | – |
| NC(N)=NCP(=O)(O)CP(=O)(O)O | – | – | 6.52 | 3.63 | inactive | 6.92 |
| CC(=O)NCP(=O)(O)CP(=O)(O)O | – | – | 3.72 | 3.75 | inactive | 4.29 |
| NCP(=O)(O)CP(=O)(O)O | – | – | 4.82 | 3.82 | inactive | 5.38 |
